PubChem BioAssay AID256 (DTP/NCI, 2004)
“And” between values parts separate entries of the source, which are not always exact repeats. Equal entries are not always repeated. Toxic doses and inconclusive results are not listed.

Tested on: CD2F1 mice, L1210 leukemia ip, survival T/C
Assay: NCI In Vivo Anticancer Drug Screen. Data for tumor model L1210 Leukemia (intraperitoneal) in CD2F1 (CDF1) mice
Conditions: higher = longer survival
In short: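 In this screen, transplantable tumors were grown in mice given either the compound or its vehicle. Results were expressed as the treated measurement relative to the control measurement.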

[1] = endpoint: mean survival time, dose: 100.0 mg/kg/injection, schedule: Q04DX003 (ip), vehicle: saline
[2] = endpoint: mean survival time, dose: 6.25 mg/kg/injection, schedule: Q01DX009 (ip), vehicle: saline
[3] = endpoint: mean survival time, dose: 12.5 mg/kg/injection, schedule: Q01DX009 (ip), vehicle: saline
[4] = endpoint: mean survival time, dose: 25.0 mg/kg/injection, schedule: Q01DX009 (ip), vehicle: saline
[5] = endpoint: mean survival time, dose: 100.0 mg/kg/injection, schedule: Q01DX009 (ip), vehicle: saline with Tween-80
[6] = endpoint: mean survival time, dose: 200.0 mg/kg/injection, schedule: Q01DX009 (ip), vehicle: saline with Tween-80
[7] = endpoint: mean survival time, dose: 400.0 mg/kg/injection, schedule: Q01DX009 (ip), vehicle: saline with Tween-80
[8] = endpoint: mean survival time, dose: 100.0 mg/kg/injection, schedule: Q04DX003 (ip), vehicle: saline with Tween-80
[9] = endpoint: mean survival time, dose: 200.0 mg/kg/injection, schedule: Q04DX003 (ip), vehicle: saline with Tween-80
[10] = endpoint: mean survival time, dose: 400.0 mg/kg/injection, schedule: Q04DX003 (ip), vehicle: saline with Tween-80
[11] = endpoint: mean survival time, dose: 100.0 mg/kg/injection, schedule: Q04DX002 (ip), vehicle: saline with Tween-80
[12] = endpoint: mean survival time, dose: 200.0 mg/kg/injection, schedule: Q04DX002 (ip), vehicle: saline with Tween-80
[13] = endpoint: mean survival time, dose: 400.0 mg/kg/injection, schedule: Q04DX002 (ip), vehicle: saline with Tween-80
[14] = endpoint: mean survival time, dose: 200.0 mg/kg/injection, schedule: Q04DX003 (ip), vehicle: saline
[15] = endpoint: mean survival time, dose: 50.0 mg/kg/injection, schedule: Q01DX009 (ip), vehicle: saline
[16] = endpoint: mean survival time, dose: 100.0 mg/kg/injection, schedule: Q01DX009 (ip), vehicle: saline
[17] = endpoint: mean survival time, dose: 200.0 mg/kg/injection, schedule: Q01DX009 (ip), vehicle: saline

For `Cc1cc(C)c2c(C#N)cn(-c3cccc(Cl)c3)c2n1`, the T/C [1] was 97 % of control.
For `CC(C)/C(=N\[N+](C)(C)C)c1ccccc1`, the T/C (endpoint: mean survival time, dose: 18.8 mg/kg/injection, schedule: Q01DX009 (ip), vehicle: saline) was 97 % of control, the T/C (endpoint: mean survival time, dose: 37.5 mg/kg/injection, schedule: Q01DX009 (ip), vehicle: saline) was 96 % of control and the T/C (endpoint: mean survival time, dose: 75.0 mg/kg/injection, schedule: Q01DX009 (ip), vehicle: saline) was 91 % of control.
For `O=S(=O)(/C=C\S(=O)(=O)c1ccccc1)c1ccccc1`, the T/C (endpoint: mean survival time, dose: 12.5 mg/kg/injection, schedule: Q01DX009 (ip), vehicle: Klucel (hydroxypropylcellulose) (HPC)) was 98 % of control and the T/C (endpoint: mean survival time, dose: 25.0 mg/kg/injection, schedule: Q01DX009 (ip), vehicle: Klucel (hydroxypropylcellulose) (HPC)) was 95 % of control.
`CCC[P+](c1ccccc1)(c1ccccc1)c1ccccc1` was tested, and the T/C (endpoint: mean survival time, dose: 3.13 mg/kg/injection, schedule: Q01DX009 (ip), vehicle: saline) was 106 % of control, the T/C [2] was 113 % of control and the T/C [3] was 120 % of control. For the same molecule, the T/C [4] was 117 % of control and the T/C (endpoint: mean survival time, dose: 75.0 mg/kg/injection, schedule: Q01DX001 (ip), vehicle: other) was 93 % of control.
With `COc1ccc(NC(=O)Nc2cc(C(F)(F)F)ccc2Cl)cc1` the T/C [5] was 90 % of control, the T/C [6] was 98 % of control and the T/C [7] was 86 % of control.
`O=C(OC1CCCCC1c1ccccc1)c1ccc([N+](=O)[O-])cc1` (centres undefined) was tested, and the T/C [8] was 90 % of control, the T/C [9] was 98 % of control and the T/C [10] was 90 % of control.
For `CC(C)OC(=O)N(C(=O)OC(C)C)c1ccc(F)cc1`, the T/C [11] was 91 % of control, the T/C [12] was 97 % of control and the T/C [13] was 94 % of control.
For `CC1c2ccccc2CC(CCN(C)C)c2ccccc21` (centres undefined), the T/C (endpoint: median survival time, dose: 6.25 mg/kg/injection, schedule: Q01DX009 (ip), vehicle: saline with Tween-80) was 94 % of control, the T/C (endpoint: median survival time, dose: 12.5 mg/kg/injection, schedule: Q01DX009 (ip), vehicle: saline with Tween-80) was 113 % of control and the T/C (endpoint: median survival time, dose: 25.0 mg/kg/injection, schedule: Q01DX009 (ip), vehicle: saline with Tween-80) was 108 % of control. For the same molecule, the T/C (endpoint: median survival time, dose: 50.0 mg/kg/injection, schedule: Q01DX009 (ip), vehicle: saline with Tween-80) was 112 % of control.
With `O=C(CC(O)(C(F)(F)F)C(F)(F)F)C(=O)c1ccc([N+](=O)[O-])cc1` the T/C [5] was 105 % of control and the T/C [6] was 94 % of control.
For `OCCN1CCN(CC/C=C2\c3ccccc3Sc3ccc(Cl)cc32)CC1`, the T/C (endpoint: mean survival time, dose: 3.12 mg/kg/injection, schedule: Q01DX009 (ip), vehicle: saline) was 102 % of control, the T/C [2] was 116 % of control and the T/C [3] was 122 % of control.
For `Cc1cc(C)c(C(=O)c2ccc(-c3ccccc3)cc2)c(C)c1`, the T/C [5] was 95 % of control, the T/C [8] was 98 % of control and the T/C [6] was 98 % of control. The T/C [9] was 106 % of control, the T/C [7] was 91 % of control and the T/C [10] was 98 % of control.
For `CC(C)(CNC1=NCCO1)NC1=NCCO1`, the T/C [1] was 104 % of control and the T/C [14] was 104 % of control.
In the case of `[Cl][Pt+2][Cl].[NH-]c1ccc([N+](=O)[O-])cc1[NH-]`, the T/C (endpoint: mean survival time, dose: 2.5 mg/kg/injection, schedule: Q01DX009 (ip), vehicle: saline with Tween-80) is reported as 103 % of control, the T/C (endpoint: mean survival time, dose: 5.0 mg/kg/injection, schedule: Q01DX009 (ip), vehicle: saline with Tween-80) is reported as 102 % of control and the T/C (endpoint: mean survival time, dose: 10.0 mg/kg/injection, schedule: Q01DX009 (ip), vehicle: saline with Tween-80) is reported as 103 % of control. The T/C (endpoint: mean survival time, dose: 20.0 mg/kg/injection, schedule: Q01DX009 (ip), vehicle: saline with Tween-80) was 105 % of control and 107 % of control, the T/C (endpoint: mean survival time, dose: 40.0 mg/kg/injection, schedule: Q01DX009 (ip), vehicle: saline with Tween-80) was 106 % of control and 111 % of control and the T/C (endpoint: mean survival time, dose: 80.0 mg/kg/injection, schedule: Q01DX009 (ip), vehicle: saline with Tween-80) was 96 % of control.
With `Cc1nc(N)nc(N)c1CCCOc1ccc(NC(=O)c2cccc(S(=O)(=O)F)c2)cc1` the T/C [3] was 101 % of control, the T/C [4] was 107 % of control and the T/C [15] was 107 % of control. For the same molecule, the T/C [16] was 109 % of control, the T/C (endpoint: mean survival time, dose: 100.0 mg/kg/injection, schedule: Q#A X018 (ip), vehicle: saline) was 90 % of control and the T/C [17] was 107 % of control.
With `CC12CCC=CC1=CC(=O)CC2` (centres undefined) the T/C [11] was 96 % of control, the T/C [12] was 100 % of control and the T/C [13] was 124 % of control.
With `C=CCSc1ncnc2c1c1c(N)ncnc1n2C1OC(CO)C(O)C1O` (centres undefined) the T/C (endpoint: mean survival time, dose: 6.25 mg/kg/injection, schedule: Q01DX005 (ip), vehicle: other) was 103 % of control, the T/C (endpoint: mean survival time, dose: 12.5 mg/kg/injection, schedule: Q01DX005 (ip), vehicle: other) was 109 % of control and the T/C (endpoint: mean survival time, dose: 25.0 mg/kg/injection, schedule: Q01DX005 (ip), vehicle: other) was 101 % of control. The T/C (endpoint: mean survival time, dose: 50.0 mg/kg/injection, schedule: Q01DX005 (ip), vehicle: other) was 107 % of control, the T/C (endpoint: mean survival time, dose: 100.0 mg/kg/injection, schedule: Q01DX005 (ip), vehicle: other) was 103 % of control and the T/C (endpoint: mean survival time, dose: 200.0 mg/kg/injection, schedule: Q01DX005 (ip), vehicle: other) was 109 % of control.
For `CS(=O)(=O)c1cnc2ccccc2n1`, the T/C [1] was 97 % of control, the T/C [14] was 86 % of control and the T/C (endpoint: mean survival time, dose: 400.0 mg/kg/injection, schedule: Q04DX003 (ip), vehicle: saline) was 95 % of control.
In the case of `O=C(O)C1CCCN1C(=O)C(CSC(c1ccccc1)(c1ccccc1)c1ccccc1)NC(c1ccccc1)(c1ccccc1)c1ccccc1` (centres undefined), the T/C [15] is reported as 101 % of control, the T/C [16] is reported as 97 % of control and the T/C [17] is reported as 98 % of control. For the same molecule, the T/C (endpoint: mean survival time, dose: 400.0 mg/kg/injection, schedule: Q01DX009 (ip), vehicle: saline) was 97 % of control.
`O=C(c1ccc(Cl)cc1)c1no[n+]([O-])c1C(=O)c1ccc(Cl)cc1` was tested, and the T/C [5] was 94 % of control, the T/C [8] was 107 % of control and the T/C [6] was 100 % of control. For the same molecule, the T/C [9] was 95 % of control, the T/C [7] was 94 % of control and the T/C [10] was 95 % of control.
`CC1(C)N=C(N)N=C(N)N1c1ccc(CCCCc2ccc(S(=O)(=O)F)cc2Cl)c(Cl)c1` was tested, and the T/C (endpoint: mean survival time, dose: 2.59 mg/kg/injection, schedule: Q01DX009 (ip), vehicle: Klucel (hydroxypropylcellulose) (HPC)) was 105 % of control, the T/C (endpoint: mean survival time, dose: 4.32 mg/kg/injection, schedule: Q01DX009 (ip), vehicle: Klucel (hydroxypropylcellulose) (HPC)) was 105 % of control and the T/C (endpoint: mean survival time, dose: 7.2 mg/kg/injection, schedule: Q01DX009 (ip), vehicle: Klucel (hydroxypropylcellulose) (HPC)) was 116 % of control. The T/C (endpoint: mean survival time, dose: 7.5 mg/kg/injection, schedule: Q01DX009 (ip), vehicle: Klucel (hydroxypropylcellulose) (HPC)) was 100 % of control, the T/C (endpoint: mean survival time, dose: 12.5 mg/kg/injection, schedule: Q01DX009 (ip), vehicle: saline with Tween-80) was 117 % of control and the T/C (endpoint: mean survival time, dose: 15.0 mg/kg/injection, schedule: Q01DX009 (ip), vehicle: Klucel (hydroxypropylcellulose) (HPC)) was 104 % of control. The T/C (endpoint: mean survival time, dose: 30.0 mg/kg/injection, schedule: Q01DX009 (ip), vehicle: Klucel (hydroxypropylcellulose) (HPC)) was 113 % of control, the T/C (endpoint: mean survival time, dose: 50.0 mg/kg/injection, schedule: Q04DX003 (ip), vehicle: saline) was 103 % of control and the T/C (endpoint: mean survival time, dose: 60.0 mg/kg/injection, schedule: Q01DX009 (ip), vehicle: Klucel (hydroxypropylcellulose) (HPC)) was 115 % of control. The T/C (endpoint: mean survival time, dose: 75.0 mg/kg/injection, schedule: Q04DX003 (ip), vehicle: saline) was 104 % of control, the T/C [5] was 97 % of control and the T/C (endpoint: mean survival time, dose: 110.0 mg/kg/injection, schedule: Q04DX003 (ip), vehicle: saline) was 121 % of control and 105 % of control. The T/C (endpoint: mean survival time, dose: 133.0 mg/kg/injection, schedule: Q04DX003 (ip), vehicle: saline with Tween-80) was 158 % of control, the T/C (endpoint: mean survival time, dose: 300.0 mg/kg/injection, schedule: Q04DX003 (ip), vehicle: saline with Tween-80) was 107 % of control and the T/C (endpoint: median survival time, dose: 27.0 mg/kg/injection, schedule: Q01DX009 (ip), vehicle: saline with Tween-80) was 156 % of control. For the same molecule, the T/C (endpoint: median survival time, dose: 40.0 mg/kg/injection, schedule: Q01DX009 (ip), vehicle: saline with Tween-80) was 156 % of control and 162 % of control, the T/C (endpoint: median survival time, dose: 60.0 mg/kg/injection, schedule: Q01DX009 (ip), vehicle: saline with Tween-80) was 158 % of control and the T/C (endpoint: median survival time, dose: 90.0 mg/kg/injection, schedule: Q01DX009 (ip), vehicle: saline with Tween-80) was 168 % of control. For the same molecule, the T/C (endpoint: median survival time, dose: 200.0 mg/kg/injection, schedule: Q04DX003 (ip), vehicle: saline with Tween-80) was 167 % of control and the T/C (endpoint: median survival time, dose: 225.0 mg/kg/injection, schedule: Q04DX003 (ip), vehicle: saline with Tween-80) was 164 % of control.
`CCCC(C)N` (centres undefined) was tested, and the T/C (endpoint: mean survival time, dose: 100.0 mg/kg/injection, schedule: Q01DX001 (ip), vehicle: saline) was 98 % of control, the T/C (endpoint: mean survival time, dose: 200.0 mg/kg/injection, schedule: Q01DX001 (ip), vehicle: saline) was 98 % of control and the T/C (endpoint: mean survival time, dose: 400.0 mg/kg/injection, schedule: Q01DX001 (ip), vehicle: saline) was 94 % of control.
